The values below come from ChEMBL document CHEMBL1126639, “Centrally acting serotonergic and dopaminergic agents. 2. Synthesis and structure-activity relationships of 2,3,3a,4,9,9a-hexahydro-1H-benz[f]indole derivatives” (J Med Chem, 1993).

For test [1], the system named is Mus musculus. Briefly: Ability to stimulate dopaminergic systems by effect on locomotor activity in reserpinized mice when a dose of 0.3 micro mol/kg is administered intraperitoneally. The class given is functional.
The subject of test [2] is Rattus norvegicus. Description: Effect on the synthesis rates of dopamine in the rat ventral limbic brain region at 3.2 micro mol/kg. Format: functional, Limbic system.
The test system of test [3] is Mus musculus. Briefly: Antagonism of apomorphine for 10-20 minutes in reserpinized mice when a dose of 0.3 micro mol/kg is administered intraperitoneally. The class given is functional.
Test [4] has as its system Mus musculus. Description: Antagonism of apomorphine in reserpinized mice when a dose of 3.2 micro mol/kg is administered intraperitoneally. The class given is functional.
Test [5] has as its system Rattus norvegicus. Briefly: Effect on the synthesis rates of serotonin in the rat ventral limbic brain region 3.2 micro mol/kg. Values are given as percent change from the control. Format: functional, Limbic system.
The test system of test [6] is Rattus norvegicus. Briefly: Inhibition of firing rates of dopaminergic neurons in the substantia nigra pars compacta by intravenous injection in rats. Format: functional.
Test [7] has as its system Mus musculus. Briefly: Antagonism of apomorphine for 0-10 minutes in reserpinized mice when a dose of 0.3 micro mol/kg is administered intraperitoneally. The class given is functional.
Test [8] deals with Mus musculus. Briefly: Antagonism of apomorphine for 10-20 minutes in reserpinized mice when a dose of 3.2 micro mol/kg is administered intraperitoneally. Format: functional.
The test system of test [9] is Mus musculus. Description: Antagonism of apomorphine for 0-10 minutes in reserpinized mice when a dose of 32 micro mol/kg is administered intraperitoneally. Format: functional.
In test [10] the test system is Mus musculus. Briefly: Ability to stimulate dopaminergic systems by effect on locomotor activity in reserpinized mice when a dose of 3.2 micro mol/kg is administered intraperitoneally. The class given is functional.
The subject of test [11] is Mus musculus. Briefly: Ability to stimulate dopaminergic systems by effect on locomotor activity in reserpinized mice when a dose of 0.03 micro mol/kg is administered intraperitoneally. Format: functional.
For test [12], the system named is Mus musculus. Description: Antagonism of apomorphine for 0-10 minutes in reserpinized mice when a dose of 3.2 micro mol/kg is administered intraperitoneally. Format: functional.
The subject of test [13] is Mus musculus. Briefly: Antagonism of apomorphine for 10-20 minutes in reserpinized mice when a dose of 0.03 micro mol/kg is administered intraperitoneally. Format: functional.
Test [14] relates to Mus musculus. Briefly: Antagonism of apomorphine in reserpinized mice when a dose of 0.3 micro mol/kg is administered intraperitoneally. The class given is functional.
The subject of test [15] is Mus musculus. Briefly: Antagonism of apomorphine in reserpinized mice when a dose of 0.03 micro mol/kg is administered intraperitoneally. Format: functional.
In test [16] the test system is Mus musculus. Description: Antagonism of apomorphine in reserpinized mice when a dose of 32 micro mol/kg is administered intraperitoneally. The class given is functional.
In test [17] the test system is Mus musculus. Briefly: Antagonism of apomorphine for 10-20 minutes in reserpinized mice when a dose of 32 micro mol/kg is administered intraperitoneally. The class given is functional.
Test [18] concerns Mus musculus. Briefly: Ability to stimulate dopaminergic systems by effect on locomotor activity in reserpinized mice when a dose of 32 micro mol/kg is administered intraperitoneally. The class given is functional.
The test system of test [19] is Mus musculus. Briefly: Antagonism of apomorphine for 0-10 minutes in reserpinized mice when a dose of 0.03 micro mol/kg is administered intraperitoneally. Format: functional.
Test [20] deals with Mus musculus. Briefly: Time of effect in the isolation-induced aggression behavioral assay in the mouse when a dose of 36 micro mol/kg is administered intraperitoneally. The class given is functional.
In test [21] the test system is Mus musculus. Briefly: Time of effect in the isolation-induced aggression behavioral assay in the mouse when a dose of 36 micro mol/kg is administered perorally. The class given is functional.
Test [22] has as its system Mus musculus. Briefly: Time of effect in the isolation-induced aggression behavioral assay in the mouse when a dose of 11 micro mol/kg is administered intraperitoneally. The class given is functional.
The subject of test [23] is Mus musculus. Briefly: Time of effect in the isolation-induced aggression behavioral assay in the mouse when a dose of 3.6 micro mol/kg is administered perorally. The class given is functional.
Test [24] relates to Rattus norvegicus. Description: Inhibition of firing rates of serotonergic neurons in the dorsal raphe nucleus by intravenous injection in rats. The class given is functional. The settings on record: Rattus norvegicus, Dorsal raphe nucleus, iv; read-out: ED50.
The test system of test [25] is Mus musculus. Description: Time of effect in the face-to-face behavioral assay in the mouse when a dose of 36 micro mol/kg is administered perorally. Format: functional.
The subject of test [26] is Mus musculus. Briefly: Time of effect in the face-to-face behavioral assay in the mouse when a dose of 11 micro mol/kg is administered perorally. The class given is functional.
The subject of test [27] is Mus musculus. Description: Time of effect in the isolation-induced aggression behavioral assay in the mouse when a dose of 0.0 micro mol/kg is administered intraperitoneally. Format: functional.
The test system of test [28] is Rattus norvegicus. Briefly: Effect on the synthesis rates of dopamine (DOPA accumulation) in the rat ventral limbic brain region at 10.7 uM/kg. The class given is functional, Limbic system.
Test [29] has as its system Rattus norvegicus. Briefly: Inhibition of firing rates of dopaminergic neurons in the substantia nigra pars compacta by intravenous injection in rats. Format: functional.
Test [30] relates to Mus musculus. Description: Time of effect in the face-to-face behavioral assay in the mouse when a dose of 0.0 micro mol/kg is administered perorally. Format: functional.
The test system of test [31] is Rattus norvegicus. Briefly: Effect on the synthesis rates of serotonin (5-HTP accumulation) in the rat ventral limbic brain region 10.7 umol/kg. The class given is functional, Limbic system.
Another test concerns the target D(2) dopamine receptor (Rattus norvegicus, UniProt P61169). Description: Binding affinity for [3H]raclopride-labeled dopamine receptor D2 in rat striatum. Format: tissue-based.
Test [32] relates to Mus musculus. Briefly: Time of effect in the isolation-induced aggression behavioral assay in the mouse when a dose of 11 micro mol/kg is administered perorally. Format: functional.
Test [33] deals with Mus musculus. Briefly: Time of effect in the face-to-face behavioral assay in the mouse when a dose of 36 micro mol/kg is administered subcutaneously. Format: functional.
In test [34] the test system is Rattus norvegicus. Description: Effect on the synthesis rates of dopamine (DOPA accumulation) in the rat ventral limbic brain region at 10.7 micro mol/kg. Format: functional, Limbic system.
The test system of test [35] is Mus musculus. Description: Time of effect in the isolation-induced aggression behavioral assay in the mouse when a dose of 0.4 micro mol/kg is administered intraperitoneally. Format: functional.
The subject of test [36] is Mus musculus. Description: Maximum decrease in temperature when compound is administered subcutaneously. The class given is functional.
For test [37], the system named is Mus musculus. Description: Time of effect in the isolation-induced aggression behavioral assay in the mouse when a dose of 36 micro mol/kg is administered intraperitoneally (*,p<0.05). Format: functional.
Test [38] relates to Rattus norvegicus. Briefly: Effect on the synthesis rates of serotonin in the rat ventral limbic brain region 10.7 micro mol/kg. The class given is functional, Limbic system.
In test [39] the test system is Felis catus. Briefly: Maximum decrease of sympathetic nerve activity (SND) in anesthetized cat. The class given is functional. The arrangement: scale not given: the % may be the effect or the level left.
The subject of test [40] is Mus musculus. Description: Time of effect in the face-to-face behavioral assay in the mouse when a dose of 3.6 micro mol/kg is administered subcutaneously. The class given is functional.
The test system of test [41] is Mus musculus. Briefly: Effective dose on hypothermia in mouse when administered subcutaneously. Format: functional.
The test system of test [42] is Mus musculus. Description: Time of effect in the face-to-face behavioral assay in the mouse when a dose of 0.4 micro mol/kg is administered subcutaneously. The class given is functional.
In test [43] the test system is Mus musculus. Description: Time of effect in the isolation-induced aggression behavioral assay in the mouse when a dose of 3.6 micro mol/kg is administered intraperitoneally (*,p<0.05). Format: functional.
Test [44] has as its system Mus musculus. Description: Effective dose on hypothermia in mouse when administered through peroral route. The class given is functional.
Test [45] relates to Mus musculus. Briefly: Maximum decrease in temperature when compound is administered through peroral route. Format: functional.
For test [46], the system named is Mus musculus. Description: Time of effect in the isolation-induced aggression behavioral assay in the mouse when a dose of 0.0 micro mol/kg is administered perorally. The class given is functional.
The species named for test [47] is Mus musculus. Briefly: Time of effect in the face-to-face behavioral assay in the mouse […]. Format: functional.
For test [48], the system named is Felis catus. Briefly: Maximum decrease of arterial blood pressure at sympathetic nerve activity (SND) in anesthetized cat has been observed following 1 mg/kg dose. On the set-up: scale not given: the % may be the effect or the level left. Format: functional.

Bounds are passed on as bounds.

Sequence of D(2) dopamine receptor (P61169 whole entry): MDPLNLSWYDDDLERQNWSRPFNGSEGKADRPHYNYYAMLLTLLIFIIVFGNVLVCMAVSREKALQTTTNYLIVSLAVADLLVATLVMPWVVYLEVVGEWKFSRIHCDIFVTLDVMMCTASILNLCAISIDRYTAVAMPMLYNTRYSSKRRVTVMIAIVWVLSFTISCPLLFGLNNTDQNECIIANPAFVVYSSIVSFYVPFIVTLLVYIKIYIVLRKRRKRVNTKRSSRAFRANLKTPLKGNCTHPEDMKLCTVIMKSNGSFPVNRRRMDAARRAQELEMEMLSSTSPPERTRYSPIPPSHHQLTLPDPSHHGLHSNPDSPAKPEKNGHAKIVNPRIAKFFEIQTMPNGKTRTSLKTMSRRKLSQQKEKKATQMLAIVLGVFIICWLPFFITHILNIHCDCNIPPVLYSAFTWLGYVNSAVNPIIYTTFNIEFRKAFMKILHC

Take `CN1CCc2cccc3c2[C@H]1Cc1ccc(O)c(O)c1-3` [APOMORPHINE]: the Locomotor activity was 150 with Mus musculus [1]; 96 with Mus musculus [3]; 139 with Mus musculus [4]; 73 in the test with Mus musculus [7]; 42 with Mus musculus [8]; 69 in the test on Mus musculus [9]. In addition, the Locomotor activity in the test on Mus musculus [10] was 1777; with Mus musculus [11], 22; in the test on Mus musculus [12] it was 52; with Mus musculus [13] it was 86; in the test with Mus musculus [14] it was 135; in the test with Mus musculus [15], 119. Besides, the Locomotor activity in the test with Mus musculus [16] is given as 113; in the test on Mus musculus [17] it was 66; in the test on Mus musculus [18], 1184; in the test on Mus musculus [19], 78. In addition, the Control with Rattus norvegicus [2] is recorded as -55%; in the test on Rattus norvegicus [5] it was 17%. The molecule further showed an ED50 with Rattus norvegicus [6] of 0.031 µmol/kg.
In the case of `C=CCN1CC[C@H]2Cc3c(cccc3OC)C[C@@H]21`, the Time in the test with Mus musculus [20] was found to be 83 s; in the test on Mus musculus [21], 219 s; with Mus musculus [22], 46 s; in the test with Mus musculus [23] it was 36 s; with Mus musculus [25] it was 0.9 s; in the test on Mus musculus [26], 0.7 s. Moreover, the values for the Time with Mus musculus [27], in the test on Mus musculus [30] and with Mus musculus [32] were 5 s, 0.3 s and 63 s, respectively. Besides, the ED50 in the test with Rattus norvegicus [24] is 3.97 µmol/kg; in the test on Rattus norvegicus [29], 4.75 µmol/kg. The Control is listed as 29% with Rattus norvegicus [28] and 4% in the test on Rattus norvegicus [31]. For the same molecule, the Ki at D(2) dopamine receptor is over 1 µM.
With `C=CCN1CC[C@@H]2Cc3c(cccc3OC)C[C@H]21` (racemic), the Time worked out at 6.9 s in the test with Mus musculus [33]; 3 s with Mus musculus [35]; 393 s in the test with Mus musculus [21]; 522 s with Mus musculus [37]; 88 s in the test with Mus musculus [23]; 3.6 s with Mus musculus [40]. Also, the Time came out at 3 s in the test with Mus musculus [27]; 1.5 s in the test on Mus musculus [42]; 147 s with Mus musculus [43]; 73 s in the test with Mus musculus [46]; 218 s in the test on Mus musculus [32]; 0.9 s in the test listed under Mus musculus [47]. For the same molecule, the Control with Rattus norvegicus [34] is -26; in the test with Rattus norvegicus [38] it was -39; in the test with Felis catus [39], 78%; with Felis catus [48] it was 63%. For the same molecule, the Max temperature decrease came to 7.8 with Mus musculus [36] and 9.9 in the test on Mus musculus [45]. The figures for the ED50 in the test on Rattus norvegicus [24], in the test on Mus musculus [41] and in the test on Mus musculus [44] were 0.14 µmol/kg, 2.6 µM/kg and 4.6 µM/kg, respectively. At D(2) dopamine receptor, this molecule came in with a Ki of over 1 µM.
